Target: T1, HDAC6 (Homo sapiens, UniProt Q9UBN7)
T1 construct: endogenous in cells; host or cells: MM1S (ATCC CRL-2974)
T1 sequence (Q9UBN7 1-1215): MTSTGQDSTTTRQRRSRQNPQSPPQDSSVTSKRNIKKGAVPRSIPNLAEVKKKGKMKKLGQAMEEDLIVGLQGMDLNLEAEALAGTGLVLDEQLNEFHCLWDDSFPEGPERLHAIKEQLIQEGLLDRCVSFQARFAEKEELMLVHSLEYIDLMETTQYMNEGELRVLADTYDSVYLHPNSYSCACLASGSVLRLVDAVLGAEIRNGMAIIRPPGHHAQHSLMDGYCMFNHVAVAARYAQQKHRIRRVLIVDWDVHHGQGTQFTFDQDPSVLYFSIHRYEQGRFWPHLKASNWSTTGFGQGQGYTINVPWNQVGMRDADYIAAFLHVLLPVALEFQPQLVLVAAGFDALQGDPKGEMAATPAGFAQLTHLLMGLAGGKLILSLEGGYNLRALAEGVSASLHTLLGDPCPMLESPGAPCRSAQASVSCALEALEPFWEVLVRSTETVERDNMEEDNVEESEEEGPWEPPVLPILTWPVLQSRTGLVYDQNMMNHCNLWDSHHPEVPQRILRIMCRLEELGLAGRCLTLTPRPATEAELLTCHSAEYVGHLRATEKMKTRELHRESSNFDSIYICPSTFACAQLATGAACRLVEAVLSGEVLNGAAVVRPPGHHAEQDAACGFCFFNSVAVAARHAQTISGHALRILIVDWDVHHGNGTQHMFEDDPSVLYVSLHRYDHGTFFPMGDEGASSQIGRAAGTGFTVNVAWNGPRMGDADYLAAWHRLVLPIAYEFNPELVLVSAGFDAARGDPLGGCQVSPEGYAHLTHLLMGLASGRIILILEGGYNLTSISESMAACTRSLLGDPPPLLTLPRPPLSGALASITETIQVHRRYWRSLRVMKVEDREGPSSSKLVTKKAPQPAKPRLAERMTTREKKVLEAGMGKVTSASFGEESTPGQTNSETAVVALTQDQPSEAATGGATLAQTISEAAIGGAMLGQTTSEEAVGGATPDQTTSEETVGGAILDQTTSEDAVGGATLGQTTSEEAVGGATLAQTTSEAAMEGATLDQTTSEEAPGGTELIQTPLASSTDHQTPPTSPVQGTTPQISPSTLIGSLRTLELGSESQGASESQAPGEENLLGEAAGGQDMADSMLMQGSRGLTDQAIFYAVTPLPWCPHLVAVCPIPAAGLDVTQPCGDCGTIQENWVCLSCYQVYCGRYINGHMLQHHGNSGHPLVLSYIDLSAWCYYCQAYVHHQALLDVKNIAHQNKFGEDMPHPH
Assay: In-cell ELISA of HDAC6 protein level in MM1S cells
Type: cell-based
Conditions: 6 h; for DC50 / Dmax: 0.1 nM to 1 μM, nonlinear fit, ± SD; for Dmax / inhibition at 0.01 µM / inhibition at 0.1 µM: MM1.S; for Dmax: read-out: Dmax (Vehicle %); for inhibition at 0.01 µM: n=3, read-out: Degradation (%) 10 nM; for inhibition at 0.1 µM: n=3, read-out: Degradation (%) 100 nM
Procedure: FIG. 9 is a histogram depicting the results of screening of compounds for HDAC6 degradation activity by in-cell ELISA. MM1S cells were treated with compounds at 100 nM (blue bars) or 10 nM (red bars) for 6 h. Data was normalized to vehicle (DMSO)-treated group and the bar graph represents as mean of relative HDAC6 protein level (n=3) with ±SD as error bar. Statistical significance was analyzed by one-way ANOVA. Not significant (ns) P>0.05, *P≤0.05, **P≤0.01, ***P≤0.001, ****P≤0.0001.
FIG. 11 is a graph depicting dose response of selected degrader candidates. MM1S cells were treated for 6 h and analyzed by in-cell ELISA. Data was normalized to vehicle (DMSO)-treated group and dot plot represented as mean relative expression (n=3) with ±SD as error bar. Nonlinear fitting of inhibitor concentration vs. response (three parameters) was generated by GraphPad Prism with R2 from 0.97 to 0.99.
FIG. 15 is a histogram depicting relative HDAC6 expression as a function of linker length for compounds 3a through 3k as described in the Examples section, Part 2. Human MM1S cells were treated with 100 nM degraders for 6 hours and analyzed by in-cell ELISA assay.
FIG. 17 is a dose-response curve for degraders 3j (n=1), 3k (n=12) and 2, at concentrations from 1 nM to 300 nM for 4 h in MM1S. See the Examples, Part 2.
To screen the new series of degraders, an in-cell ELISA assay was developed and validated. The compounds were treated at 100 nM and 10 nM in MM1S cells for 6 h. Resulting cells were then fixed and analyzed by in-cell ELISA. […] Degraders including 1 at 100 nM degraded 73.5% to 85.0% of HDAC6 with minor difference. At 10 nM concentration of compounds, obvious structure-activity-relationship (SAR) was observed. […] For example, 12d, 12h, 12i, 12o and 12p all achieved about 70% degradation. Among the C4-linked series, 12d with medium length linker (5+1) achieved most degradation in sub-series 12a-e (m=1). […] Among C5-linked series, the potency of sub-series 12l-p (m=1) increased with the linker length. […] It appeared that both the distance and linking positions contributed to the degradation efficiency. The rigid triazole ring in the middle of the linker likely modulated the plasticity of degrader-bridged ternary complex.
The amount of cellular HDAC6 was measured in response to concentrations of compounds from 0.1 nM to 1 μM. […] The new degraders had single-digit nanomolar DC50, which was about 3 to 5 fold of improvement from 9.12 nM of degrader 1. […] As discussed above, most PROTACs were designed to avoid degrading other proteins except the targeted POIs. However, in these studies, it was hypothesized that HDAC6 degraders with IKZF degradation will have enhanced anti-proliferation effect MM1S cells.
MM1S cells were harvested and plated with 5×10^5 cells in 100 μL media per well 96-wells plate. After overnight seeding, 25 μL media containing 5× dosing concentration of the compounds or vehicle was added to each well. After 6-hour treatment at 37° C. in a humidified 5% CO2 atmosphere, cells were fixed by adding 125 μL 8% formaldehyde in TBS buffer (137 mM NaCl, 25 mM Tris, 2.7 mM potassium chloride, pH 7.6) and incubated at room temperature (RT) for 15 minutes. Removal of fixing solution was followed by once rinse and twice washes with TBS-T washing buffer (137 mM NaCl, 20 mM Tris, 0.1% Tween, pH 7.6). Cells were then permeabilized by adding 100 μL 0.1% Triton-X in TBS and incubated at RT for 15 minutes. Removal of permeabilizing solution was followed by once rinse and once wash with TBS-T. Cellular endogenous peroxidases were quenched by adding 100 μL 1% H2O2 in TBS and incubation at RT for 20 minutes. Removal of quenching solution was followed by once rinse and once wash with TBS-T. Non-specific binding sites were blocked by adding […] 5% BSA in TBS-T (with 0.02% NaN3) and incubation at 4° C. overnight. […]

[1] = 10 nM, 100% minus mean (± SD) relative HDAC6 expression
[2] = 100 nM, 100% minus mean (± SD) relative HDAC6 expression

SMILES | DC50 [nM] | Dmax [%] | inhibition at 0.01 µM [1] [%] | inhibition at 0.1 µM [2] [%] | Degradation (%) 10 nM (10 nM, 100% minus mean (± SD) relative HDAC6 expression, n=3) [%] | Degradation (%) 100 nM (100 nM, 100% minus mean (± SD) relative HDAC6 expression, n=3) [%]
CCCCN(Cc1ccc(C(=O)NO)cc1)C(=O)Nc1ccc(OCCn2cc(CNc3cccc4c3C(=O)N(C3CCC(=O)NC3=O)C4=O)nn2)cc1 (stereo not drawn) [Compound 12a, 4-((1-butyl-3-(4-(2-(4-(((2-(2,6-dioxopiperidin-3-yl)-1,3-dioxoisoindolin-4-yl)amino)methyl)-1H-1,2,3-triazol-1-yl)ethoxy)phenyl)ureido)methyl)-N-hydroxybenzamide] | 3.41 ± 0.52 | 88 ± 2.23 | 62.1 ± 1 | 81.3 ± 2.3 | – | –
CCCCN(Cc1ccc(C(=O)NO)cc1)C(=O)Nc1ccc(OCCCCn2cc(CNc3cccc4c3C(=O)N(C3CCC(=O)NC3=O)C4=O)nn2)cc1 (stereo not drawn) [Compound 12n, 4-((1-butyl-3-(4-(4-(4-(((2-(2,6-dioxopiperidin-3-yl)-1,3-dioxoisoindolin-4-yl)amino)methyl)-1H-1,2,3-triazol-1-yl)butoxy)phenyl)ureido)methyl)-N-hydroxybenzamide] | – | – | – | – | 63.3 ± 0.8 | 80.9 ± 0.4
CCCCN(Cc1ccc(C(=O)NO)cc1)C(=O)Nc1ccc(OCCCCn2cc(CCCNc3cccc4c3C(=O)N(C3CCC(=O)NC3=O)C4=O)nn2)cc1 (stereo not drawn) [Compound 12k, 4-((1-butyl-3-(4-(4-(4-(3-((2-(2,6-dioxopiperidin-3-yl)-1,3-dioxoisoindolin-4-yl)amino)propyl)-1H-1,2,3-triazol-1-yl)butoxy)phenyl)ureido)methyl)-N-hydroxybenzamide] | – | – | 50.9 ± 2.2 | 75.7 ± 0.8 | – | –
CCCCN(Cc1ccc(C(=O)NO)cc1)C(=O)Nc1ccc(OCCCCCCn2cc(CNc3ccc4c(c3)C(=O)N(C3CCC(=O)NC3=O)C4=O)nn2)cc1 (stereo not drawn) [Compound 12p, 4-((1-butyl-3-(4-((6-(4-(((2-(2,6-dioxopiperidin-3-yl)-1,3-dioxoisoindolin-5-yl)amino)methyl)-1H-1,2,3-triazol-1-yl)hexyl)oxy)phenyl)ureido)methyl)-N-hydroxybenzamide] | – | – | ~70 | 83.5 ± 0.5 | – | –
CCCCN(Cc1ccc(C(=O)NO)cc1)C(=O)Nc1ccc(OCCn2cc(CNc3ccc4c(c3)C(=O)N(C3CCC(=O)NC3=O)C4=O)nn2)cc1 (stereo not drawn) [Compound 12l, 4-((1-butyl-3-(4-(2-(4-(((2-(2,6-dioxopiperidin-3-yl)-1,3-dioxoisoindolin-5-yl)amino)methyl)-1H-1,2,3-triazol-1-yl)ethoxy)phenyl)ureido)methyl)-N-hydroxybenzamide] | – | – | 57.1 ± 1.4 | 81.4 ± 0.6 | – | –
CCCCN(Cc1ccc(C(=O)NO)cc1)C(=O)Nc1ccc(OCCn2cc(CCCNc3cccc4c3C(=O)N(C3CCC(=O)NC3=O)C4=O)nn2)cc1 (stereo not drawn) [Compound 12i, 4-((1-butyl-3-(4-(2-(4-(3-((2-(2,6-dioxopiperidin-3-yl)-1,3-dioxoisoindolin-4-yl)amino)propyl)-1H-1,2,3-triazol-1-yl)ethoxy)phenyl)ureido)methyl)-N-hydroxybenzamide] | 2.54 ± 0.32 | 86.3 ± 1.67 | ~70 | 83.1 ± 1 | – | –
CCCCN(Cc1ccc(C(=O)NO)cc1)C(=O)Nc1ccc(OCCCCCCn2cc(CNc3cccc4c3C(=O)N(C3CCC(=O)NC3=O)C4=O)nn2)cc1 (stereo not drawn) [Compound 12e, 4-((1-butyl-3-(4-((6-(4-(((2-(2,6-dioxopiperidin-3-yl)-1,3-dioxoisoindolin-4-yl)amino)methyl)-1H-1,2,3-triazol-1-yl)hexyl)oxy)phenyl)ureido)methyl)-N-hydroxybenzamide] | – | – | 66.1 ± 1.1 | 77.8 ± 1.7 | – | –
CCCCN(Cc1ccc(C(=O)NO)cc1)C(=O)Nc1ccc(OCCn2cc(CCCNc3ccc4c(c3)C(=O)N(C3CCC(=O)NC3=O)C4=O)nn2)cc1 (stereo not drawn) [Compound 12q, 4-((1-butyl-3-(4-(2-(4-(3-((2-(2,6-dioxopiperidin-3-yl)-1,3-dioxoisoindolin-5-yl)amino)propyl)-1H-1,2,3-triazol-1-yl)ethoxy)phenyl)ureido)methyl)-N-hydroxybenzamide] | – | – | 47.2 ± 4.8 | 80.4 ± 0.3 | – | –
CCCCN(Cc1ccc(C(=O)NO)cc1)C(=O)Nc1ccc(OCCCn2cc(CCCNc3cccc4c3C(=O)N(C3CCC(=O)NC3=O)C4=O)nn2)cc1 (stereo not drawn) [Compound 12j, 4-((1-butyl-3-(4-(3-(4-(3-((2-(2,6-dioxopiperidin-3-yl)-1,3-dioxoisoindolin-4-yl)amino)propyl)-1H-1,2,3-triazol-1-yl)propoxy)phenyl)ureido)methyl)-N-hydroxybenzamide] | – | – | 45.6 ± 1.6 | 77.3 ± 1.5 | – | –
CCCCN(Cc1ccc(C(=O)NO)cc1)C(=O)Nc1ccc(OCCCn2cc(CNc3cccc4c3C(=O)N(C3CCC(=O)NC3=O)C4=O)nn2)cc1 (stereo not drawn) [Compound 12b, 4-((1-butyl-3-(4-(3-(4-(((2-(2,6-dioxopiperidin-3-yl)-1,3-dioxoisoindolin-4-yl)amino)methyl)-1H-1,2,3-triazol-1-yl)propoxy)phenyl)ureido)methyl)-N-hydroxybenzamide] | – | – | 67.3 ± 0.8 | 84.1 | – | –

— patent US11059815B2, “Synthesis of small molecule histone deacetylase 6 degraders, compounds formed thereby, and pharmaceutical compositions containing them” (Wisconsin Alumni Research Foundation, priority 2018, dated 2021)
